Laboratory results from article PMC10755736, “Modulating Liquid–Liquid Phase Separation of Nck Adaptor Protein against Enteropathogenic Escherichia coli Infection” (ACS Central Science, 2023).
Non-standard residues stand in square brackets, D forms with d. Residues, ends and D or L forms follow the SMILES beside them. *: point of attachment. Biotin = O=C1N[C@H]2[C@H](CS[C@H]2CCCCC(=O)*)N1; Benzoyl(4-SO2F) = O=C(c1ccc(S(=O)(=O)F)cc1)*; pY = N[C@@H](Cc1ccc(OP(=O)(O)O)cc1)C(=O)O; Dap = NC[C@H](N)C(=O)O

What was measured:
[1] = system: Nck-SH2; assay: Competitive pull-down of Nck with biotinylated Y474; assay type: binding; settings: with or without p1
Protocol: (§1) In addition, we performed the reaction between p1 and Nck in a cell lysate, representing a complex solution. We incubated peptide p1 with the lysate of Caco-2 cells overexpressing Nck, and the reaction mixture was resolved on SDS-PAGE and analyzed with Western blotting against an anti-Nck antibody. […] Next, we incubated biotinylated peptide Y474 and Nck solutions with or without p1 peptide, and pulled down proteins that bound with biotinylated Y474.

[2] = system: Caco-2 cells; assay: Cell viability by CCK8 assay; assay type: cell-based
Protocol: concentrations were added to each well, followed by a 90-min incubation at 37 °C. Diluted streptavidin-HRP solution was then added, followed by substrate solution to develop cover at 450 nm, and recorded by a plate reader. For MST test, a series diluted solutions of the cy5 labeled peptides were incubated with 400 nM Nck for 30 min and loaded into 16 capillaries. And then the samples were scanned and measured at 20% IR Laser power with 30 s laser-on time on a Monolith NT.115 instrument (NanoTemper Technologies). The data were analyzed by KD fitting model (KD) or hill fitting model […]
A Cell Line Stably Expressing N-WASP
To establish a stable pool of cells for N-WASP overexpression, Caco-2 cells were infected at 70-80% confluency with the virus diluted in a suitable medium supplemented with 8 µg/ml […]. After 48 h of incubation, infected cells were treated with puromycin for 7-14 days. The selection medium was changed every 2 days. Under the same treatment conditions, uninfected parental cells were used as selection controls. […]
Plasmid extraction was done using a plasmid DNA Maxi kit (Omega Bio-Tek, GA, USA). […] 48 h after transfection, cells were analyzed by fluorescent micrscopes. Cell viability was measured by a CCK8 assay (Thermo Fisher Scientific) according to its manual. […]
Figure S10. […] The viability was measured at 450 nm absorbance.

[3] = target: T1, Nck (Homo sapiens, UniProt P16333); assay: Reaction of peptides with Nck in Caco-2 cell lysate (Western blotting); assay type: binding; settings: lysate of Caco-2 cells (5 µg/µl) overexpressing Nck; peptide 10 µM, 37 °C, 60 min; anti-Nck Western blot
T1 construct: GST (followed by PreScission/HRV 3C site) (N, cleaved yes); made in house; host or cells: E. coli BL21(DE3)
Protocol: as §1
Figure S7. Reaction of p1 in cell lysate. Biotinylated p1 peptide (10 µM) was incubated with the
lysate of Caco-2 cells (5 µg/µl)to react at 37 °C for 60 min before the mixture was resolved on SDS-
PAGE. Western blotting experiments using an anti-biotin antibody and an anti-Nck antibody, […]

[4] = target: T2, Nck/N-WASP/3pY (Homo sapiens, UniProt P16333); assay: Turbidity assay of Nck/N-WASP/3pY solution; assay type: biochemical; settings: Nck droplets; text cites Figures S12 and S13
T2 construct: GST (followed by PreScission/HRV 3C site) (N, cleaved yes); made in house; host or cells: E. coli BL21(DE3)
Protocol: Next, we explored the intervention of Nck/N-WASP/3pY LLPS using pY peptides (Figure 3a). Three pY-containing peptides extracted from different Tir sequences were synthesized, namely, peptides Y474, Y751, and Y147 (Figure 3b).
Figure 3 pY peptides disrupt Nck/N-WASP/3pY LLPS. (a) Sequences of synthetic pY peptides. […] Nck: 20 μM; N-WASP: 10 μM; 3pY: 10 μM. Scale bars, 20 μm. (c) Peptide Y474 rapidly decreases the turbidity of the Nck/N-WASP/3pY solution in around 20 min. Nck: 20 μM, N-WASP: 10 μM, 3pY: 10 μM. […] Nck: 20 μM, N-WASP: 10 μM, 3pY: 10 μM.
(Cytiva, Hong Kong) using a gradient from 100 to 500 mM NaCl and Superdex 75 10/300 GL column (Cytiva, Hong Kong) in 25 mM HEPES, 150 mM NaCl, and 2 mM βME at pH 7.5.
Proteins were buffer-exchanged through a Hi-trap desalting column (Cytiva, Hong Kong) to the reaction buffer. For Cy5 labeling, the buffer was 0.1 M sodium bicarbonate buffer at pH 8.3. For FITC labeling, the buffer was 50 mM sodium borate at pH 8.5. […]
Fluorescence Recovery after Photobleaching (FRAP) Assay
Fluorescence recovery in vitro was conducted with a DMi8 microscope (Leica, Germany). […]
The fluorescence intensity was quantified and normalized by ImageJ.
Fluorescence recovery after photobleaching experiments inside mammalian cells was conducted with a two-photon imaging system using a custom-built upright microscope, based on a previously used imaging setup. […]

Compound: CC[C@H](C)[C@H](NC(=O)[C@H](Cc1c[nH]cn1)NC(=O)[C@H](CCC(=O)O)NC(=O)[C@H](CCC(=O)O)NC(=O)CCCC[C@@H]1SC[C@@H]2NC(=O)N[C@@H]21)C(=O)N[C@@H](Cc1ccc(OP(=O)(O)O)cc1)C(=O)N[C@@H](CNC(=O)c1ccc(S(=O)(=O)F)cc1)C(=O)N[C@@H](CCC(=O)O)C(=O)N[C@H](C(=O)N[C@@H](C)C(=O)N[C@@H](C)C(=O)N[C@@H](CC(=O)O)C(N)=O)C(C)C [p1] (Biotin-EEHI[pY][Dap](Benzoyl(4-SO2F))EVAAD-NH2; N-terminus and C-terminus assumed)
- binding of Nck to biotinylated Y474 in pull-down [1]: the Nck protein did not bind with Y474
- cytotoxicity ([2]; CCK8, p1 0.3125-10 μM with L17E 40 μM for 3 h, 48 h incubation): did not cause noticeable cytotoxicity
- cell physiology or toxicity changes from side reactions of sulfonyl fluoride ([2]; inside cells): did not cause noticeable changes in the cell physiology or toxicity
- Nck band shift in cell lysate [3]: complete band shift
- reduction of solution turbidity, p1 and Y474 compared [4]: reduce the turbidity of the solution
